As usually defined, the IC50 is the point on the concentration scale where inhibition reaches its midpoint.

Experiment [1] deals with T1, recombinant hGYS1/GN1 protein (Homo sapiens, UniProt P13807).
T1 sequence (P13807 1-737): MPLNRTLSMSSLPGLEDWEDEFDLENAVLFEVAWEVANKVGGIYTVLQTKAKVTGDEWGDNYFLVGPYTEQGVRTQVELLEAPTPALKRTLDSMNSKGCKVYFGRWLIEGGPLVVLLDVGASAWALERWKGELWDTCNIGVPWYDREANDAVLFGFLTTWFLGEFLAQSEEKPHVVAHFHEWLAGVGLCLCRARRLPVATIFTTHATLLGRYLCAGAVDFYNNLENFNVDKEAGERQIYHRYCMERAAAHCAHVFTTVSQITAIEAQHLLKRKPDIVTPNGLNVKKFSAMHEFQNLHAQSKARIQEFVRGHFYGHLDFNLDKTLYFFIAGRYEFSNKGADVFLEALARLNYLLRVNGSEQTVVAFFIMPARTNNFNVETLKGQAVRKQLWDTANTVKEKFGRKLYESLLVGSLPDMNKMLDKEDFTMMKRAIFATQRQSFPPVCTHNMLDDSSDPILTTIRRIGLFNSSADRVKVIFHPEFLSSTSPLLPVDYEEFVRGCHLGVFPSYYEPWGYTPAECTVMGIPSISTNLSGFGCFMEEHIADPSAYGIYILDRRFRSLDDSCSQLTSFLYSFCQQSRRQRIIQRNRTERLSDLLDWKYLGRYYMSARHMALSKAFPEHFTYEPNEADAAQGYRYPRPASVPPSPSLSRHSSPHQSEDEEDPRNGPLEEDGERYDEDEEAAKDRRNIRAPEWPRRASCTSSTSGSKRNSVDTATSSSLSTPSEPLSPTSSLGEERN
T1 sequence (P46976 1-350 partner): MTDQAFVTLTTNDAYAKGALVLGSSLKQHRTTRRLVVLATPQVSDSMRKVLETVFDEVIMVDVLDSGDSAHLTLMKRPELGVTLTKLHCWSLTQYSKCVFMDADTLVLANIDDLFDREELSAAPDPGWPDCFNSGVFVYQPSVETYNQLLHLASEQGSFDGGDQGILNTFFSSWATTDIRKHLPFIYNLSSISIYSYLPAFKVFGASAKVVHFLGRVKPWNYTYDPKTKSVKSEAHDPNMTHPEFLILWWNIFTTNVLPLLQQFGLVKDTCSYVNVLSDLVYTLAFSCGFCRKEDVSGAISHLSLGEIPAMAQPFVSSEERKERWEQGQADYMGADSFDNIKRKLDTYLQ
The experiment can be described thus: GYS1 coupled enzyme assay (PK/LDH). The class given is biochemical. The following applies: geometric mean of at least 2 assay runs; NADH absorbance at 340 nm. The essentials:
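Recombinant hGYS1/GN1 (50 nM) with 0.8 mM UDP-glucose, 0.2% glycogen and 1 mM glucose-6-phosphate in Tris pH 7.5, 2.5% DMSO. UDP formation coupled via PK/LDH to NADH oxidation, read at 340 nm over 10 min. Control-normalized slopes fit to Hill equation; IC50 as geometric mean of ≥2 runs.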

Experiment [2] deals with T2, recombinant hGYS2/GN1 protein (Homo sapiens, UniProt P54840).
T2 sequence (P54840 1-703): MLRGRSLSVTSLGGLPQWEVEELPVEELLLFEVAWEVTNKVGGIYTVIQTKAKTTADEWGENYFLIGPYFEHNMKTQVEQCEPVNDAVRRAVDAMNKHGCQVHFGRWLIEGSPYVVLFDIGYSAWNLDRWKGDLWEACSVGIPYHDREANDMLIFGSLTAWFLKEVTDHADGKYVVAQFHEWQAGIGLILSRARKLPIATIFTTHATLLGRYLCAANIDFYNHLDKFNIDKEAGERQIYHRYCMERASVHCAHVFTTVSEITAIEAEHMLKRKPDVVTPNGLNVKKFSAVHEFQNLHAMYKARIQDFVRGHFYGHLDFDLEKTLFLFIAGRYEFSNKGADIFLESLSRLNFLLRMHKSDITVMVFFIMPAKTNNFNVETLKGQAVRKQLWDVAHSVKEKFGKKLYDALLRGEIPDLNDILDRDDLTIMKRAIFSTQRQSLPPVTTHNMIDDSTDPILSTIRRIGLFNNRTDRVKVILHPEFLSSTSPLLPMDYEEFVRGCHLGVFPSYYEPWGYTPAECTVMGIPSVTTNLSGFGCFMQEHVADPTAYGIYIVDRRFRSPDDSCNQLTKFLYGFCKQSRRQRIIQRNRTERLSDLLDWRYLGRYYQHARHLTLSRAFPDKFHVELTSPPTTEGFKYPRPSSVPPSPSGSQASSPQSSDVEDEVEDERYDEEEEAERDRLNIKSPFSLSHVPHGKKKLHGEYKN
T2 sequence (P46976 1-350 partner): T1 sequence (P46976 1-350 partner)
The experiment can be described thus: GYS2 coupled enzyme assay (PK/LDH). Type of experiment: biochemical. The note with it: geometric mean of at least 2 assay runs; NADH absorbance at 340 nm. The text has this:
The GYS2 coupled enzyme assay is a kinetic biochemical assay that indirectly quantifies the rate of glycogen synthesis by coupling the conversion of GYS2 substrate UDP-glucose into UDP with downstream enzymatic reactions. UDP is released from UDP-glucose as glucose monomers are linked into the growing glycogen strand by GYS2. The coupled assay then proceeds with pyruvate kinase utilizing UDP and phospho(enol)pyruvate (PEP) to form pyruvate. Lactate dehydrogenase then converts pyruvate and NADH into lactate and NAD+. Oxidation of NADH to NAD+ can be measured continuously with a plate reader by quantifying the decrease in NADH absorbance at 340 nm over time.
Compounds that inhibit the hGYS2 enzyme and, subsequently, the downstream conversion of NADH to NAD+, were tested using assay ready plates (black, clear bottom 384 well plates) in a final DMSO reaction volume of 2.5% DMSO. The Assay Buffer contained 50 mM Tris pH 7.5, 2 mM MgCl2, and 100 mM KCl. Fresh stocks of BSA at a final concentration of 0.02% and TCEP 1 mM were added before splitting buffer into hGYS2 buffer and substrate buffer. To the hGYS2 buffer, rabbit liver glycogen was added at a final concentration of 0.2% glycogen. Glucose-6-Phosphate was added at 2 mM, recombinant hGYS2/GN1 protein was added at 200 nM to the substrate buffer, phosphoenolpyruvate (PEP) was added at 2 mM, UDP-Glucose was added at 2 mM, NADH was added at 0.6 mM, and Pyruvate Kinase/Lactate Dehydrogenase was added at 20 units/mL. The reaction was initiated by mixing hGYS2 buffer and substrate buffer at a 1:1 ratio. Both buffers were plated using a liquid dispensing device with hGYS2 buffer plated first followed by the substrate buffer. Plates were spun briefly to eliminate air bubbles and are immediately read in continuous mode at an absorbance of 340 nm, for 10 time points in one-minute increments, for a total of 10 minutes. The slope from these 10 time points was normalized to the positive and negative control wells. The duplicate % inhibition values are then averaged and fit to a Hill equation for dose response according to the Levenberg-Marquardt algorithm with the Hill equation maximum set to 100 and the minimum set to 0.
The results are shown in Table 5 below, which reports the IC50 of each compound. Unless otherwise specified, IC50 values are reported as the geometric mean of at least 2 assay runs on separate days. As shown in the table below, the compounds of the present invention are not potent inhibitors of human GYS2. […] Each run represents the average of a technical replicate, where each compound was assayed twice in the same plate.

A value given as a limit tells only on which side of the number the result lay.

Turning to `CC(C)c1ccc([C@@H](NC(=O)C2CC2)c2ccccc2NC(N)=O)cc1` [compound 54, (R)-N-((4-isopropylphenyl)(2-ureidophenyl)methyl)cyclopropanecarboxamide], the IC50 in experiment [1] was 346 nM; in experiment [2], over 100000 nM.

As for `CC(C)c1ccc([C@@H](NC(=O)C2CC2)c2ccn[nH]2)cc1` [compound 56, (R)-N-((4-isopropylphenyl)(1H-pyrazol-5-yl)methyl)cyclopropanecarboxamide], the results for the IC50 in experiment [1] and in experiment [2] were 372 nM and over 100000 nM, respectively.

Consider `CC(C)c1ccc([C@@H](NC(=O)C2CC2)c2ccccc2NS(C)(=O)=O)cc1` [compound 57, (R)-N-((4-isopropylphenyl)(2-(methylsulfonamido)phenyl)methyl)cyclopropanecarboxamide], for which the results for the half-inhibitory concentration (IC50) in experiment [1] and in experiment [2] were 2170 nM and over 100000 nM, respectively.

Turning to `CCC(=O)Nc1ccccc1[C@H](NC(=O)C1CC1)c1ccc(C(C)C)cc1` [compound 59, (R)-N-((4-isopropylphenyl)(2-propionamidophenyl)methyl)cyclopropanecarboxamide], the half-inhibitory concentration (IC50) was 441 nM in experiment [1] and over 100000 nM in experiment [2].

`CC(C)c1ccc([C@@H](NC(=O)C2CC2)c2ccccc2NC(=O)C2COC2)cc1` [compound 60, (R)-N-(2-(cyclopropanecarboxamido(4-isopropylphenyl)methyl)phenyl)oxetane-3-carboxamide]: the results for the IC50 in experiment [1] and in experiment [2] were 521 nM and over 100000 nM, respectively.

For `CC(C)c1ccc([C@@H](NC(=O)C2CC2)c2cccc(O)c2)cc1` [compound 62, (R)-N-((3-hydroxyphenyl)(4-isopropylphenyl)methyl)cyclopropanecarboxamide], the results for the IC50 in experiment [1] and in experiment [2] were 376 nM and over 100000 nM, respectively.

Turning to `COc1cccc([C@H](NC(=O)C2CC2)c2ccc(C(C)C)cc2)c1C` [compound 63, (R)-N-((4-isopropylphenyl)(3-methoxy-2-methylphenyl)methyl)cyclopropanecarboxamide], the IC50 is 1430 nM in experiment [1] and over 100000 nM in experiment [2].

On to `CC(C)c1ccc([C@@H](NC(=O)C2CC2)c2ccccc2O)cc1` [compound 67, (R)-N-((2-hydroxyphenyl)(4-isopropylphenyl)methyl)cyclopropanecarboxamide], for which the half-maximal inhibitory concentration (IC50) in experiment [1] is 293 nM; in experiment [2], over 100000 nM.

With `CC(C)c1ccc([C@@H](NC(=O)C2CC2)c2ccc(O)cc2)cc1` [compound 68, (R)-N-((4-hydroxyphenyl)(4-isopropylphenyl)methyl)cyclopropanecarboxamide], the half-inhibitory concentration (IC50) in experiment [1] is 663 nM; in experiment [2], over 97400 nM.

On to `COc1cccc([C@H](NC(=O)C2CC2)c2ccc(C(C)C)cc2)c1` [compound 70, (R)-N-((4-isopropylphenyl)(3-methoxyphenyl)methyl)cyclopropanecarboxamide], for which the figures for the IC50 in experiment [1] and in experiment [2] were 786 nM and over 100000 nM, respectively.

Consider `COc1ccc([C@H](NC(=O)C2CC2)c2ccc(C(C)C)cc2)cc1` [compound 72, (R)-N-((4-isopropylphenyl)(4-methoxyphenyl)methyl)cyclopropanecarboxamide], for which the IC50 in experiment [1] was 2680 nM; in experiment [2], over 100000 nM.

For the compound `CC(C)c1ccc([C@@H](NC(=O)C2CC2)c2ccccc2)cc1` [compound 73, (S)-N-((4-isopropylphenyl)(phenyl)methyl)cyclopropanecarboxamide], the IC50 in experiment [1] is 706 nM; in experiment [2], over 100000 nM.
